# Assay results as given in US10450288B2, “Hydroxy formamide derivatives and their use” (GLAXOSMITHKLINE INTELLECTUAL PROPERTY (NO.2) LIMITED, priority 2014, dated 2019).
# Tests used:
# [1] = system: human cardiac fibroblasts; assay: Cell-based inhibition assay of generation of procollagen I C-terminal propeptide (PICP), PICP ELISA; details: Cardiac fibroblast, read-out: pIC50, PICP cellular inhibition assay (converted)
# Outline: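 Cardiac fibroblasts (passage ≤6) treated 24–48 h at 37 °C with compounds in ficoll crowding medium containing 100 μM ascorbic acid, DMSO <0.3%. PICP secreted into the medium was quantified by ELISA, normalised to untreated controls and fitted to log(inhibitor)–response to give pIC50.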
# [2] = system: human cardiac fibroblasts; assay: Cell-based inhibition assay of mature collagen deposition (immunostaining); details: Cardiac fibroblast, read-out: pIC50, mature collagen cellular inhibition assay (converted)
# Protocol: Cell-Based Inhibition Assay of Generation of Procollagen I C-Terminal Propeptide (PICP) and Mature Collagen:
# An adaptation of the collagen deposition assay described by Chen, C. Z. C., et al., British Journal of Pharmacology, 2009, 158, 1196-1209 was used to examine effect of compounds on procollagen I processing and collagen deposition. In the adapted assay, human cardiac fibroblasts were utilized. Processing of procollagen I was determined by a PICP ELISA assay and deposition of mature collagen was determined by immunostaining.
# Human cardiac fibroblasts were cultured and maintained until passage 6 in FGM-3 media (Lonza, #CC-3132) in a 37° C. humidified incubator with 5% CO2. They were then seeded in 96-well black wall, clear bottom plates at 10,000 to 15,000 cells per well in eagle's minimum essential media (EMEM, ATCC #30-2003) containing 10% fetal bovine serum (FBS, Life Technologies #10082147), 1% Glutamax (Life Technologies #35050061) and 1% Penicillin and Streptomycin (Life Technologies #15070063). These cultures were placed in 37° C. incubator. The next day, media were removed by aspiration and cells were rinsed with phosphate buffered saline. Crowding media (also called ficoll media) was prepared by adding 112.5 mg/ml of ficoll70 and 75 mg/ml ficoll400 (GE healthcare #17-0310-10 and 17-0300-10, respectively), 100 μM ascorbic acid, 1% Glutamax and 1% Penicillin and Streptomycin to EMEM media. Test compounds (dissolved in DMSO) were diluted into crowding media and then added to the cells. Final concentration of DMSO in crowding media was less than 0.3%. Cells were treated for 24 to 48 hr in a 37° C. incubator. At the end of the treatment period, cell media were collected. The level of PICP in the media were determined by a PICP ELISA assay (Quidel #8003) following the manufacturer's protocol. Potencies of test compounds were calculated by fitting PICP levels, relative to untreated controls, to log (inhibitor) vs. response equation using Graphpad Prism software 5.0 and expressed as pIC50.
# For some compounds, deposition of mature collagen was measured by immunostaining in addition to PICP levels. At the end of the treatment period, cells on culture plate were fixed with 100% methanol (prechilled to −20° C.) for 10 min. Then the cells were immunostained with mouse anti-mature collagen I antibody (1:500 dilution, Sigma#C2456), anti-mouse secondary antibody Alexa647 (1:500 dilution, Invitrogen#A21236) and Hoechst (for nuclei, 2 μg/ml, Invitrogen#H3596). Fluorescent image acquisition was done using the Operetta High Content Imaging system (Perkin Elmer). For each image field, the intensity of mature collagen staining was normalized with the number of nuclei. Normalized collagen levels were used to calculate the potency of test compounds with Graphpad Prism software, as described above.
# [3] = human cardiac fibroblasts, crowding media, 24 to 48 hr, PICP ELISA of media
# [4] = human cardiac fibroblasts, crowding media, 24 to 48 hr, collagen I immunostaining normalized to nuclei
Compound,"IC50 [1, 3]","IC50 [2, 4]",IC50 ([1]; Homo sapiens),IC50 ([2]; Homo sapiens)
"CCCCC[C@@H](C(=O)NCNC(=O)c1ccc(-c2cccc(C3(C(=O)O)CC3)c2)o1)[C@@H](CC)N(O)C=O [Example 80, 1-(3-(5-((((R)-2-((R)-1-(N-hydroxyformamido)propyl)heptanamido)methyl)carbamoyl)furan-2-yl)phenyl) cyclopropanecarboxylic acid]",< 3.98 µM,< 1 µM,,
"CCOc1cc(-c2ccc(C(=O)NCNC(=O)[C@H](CCc3ccccc3)[C@@H](CC)N(O)C=O)o2)ccc1C(=O)N(CC(=O)O)CC(=O)O [Example 124, 2,2′-((2-ethoxy-4-(5-((((2R,3R)-3-(N-hydroxyformamido)-2-phenethylpentanamido)methyl)carbamoyl)furan-2-yl)benzoyl)azanediyl) diacetic acid]",< 3.98 µM,< 1 µM,,
"CCCCC[C@@H](C(=O)NCNC(=O)c1ccc(-c2cc(O)cc(C(=O)O)c2)o1)[C@@H](CC)N(O)C=O [Example 112, 3-hydroxy-5-(5-((((R)-2((R)-1-(N-hydroxyformamido)propyl)heptanamido)methyl)carbamoyl)furan-2-yl)benzoic acid]",< 3.98 µM,< 1 µM,,
"CCOc1cc(-c2ccc(C(=O)NCNC(=O)[C@H](CCc3ccc(F)cc3F)[C@@H](CC)N(O)C=O)o2)ccc1C(=O)N[C@@H](CC(=O)O)C(=O)O [Example 123, (S)-2-(4-(5-((((2R,3R)-2-(2,4-difluorophenethyl)-3-(N-hydroxyformamido)pentanamido)methyl)carbamoyl)furan-2-yl)-2-ethoxybenzamido) succinic acid]",< 3.98 µM,< 1 µM,,
"CCCCC[C@@H](C(=O)NCNC(=O)c1ccc(-c2cc(OCC)cc(C(=O)O)c2)o1)[C@@H](CC)N(O)C=O [Example 39, 3-ethoxy-5-(5-((((R)-2-((R)-1-(N-hydroxyformamido)propyl)heptanamido)methyl)carbamoyl)furan-2-yl)benzoic acid]",< 3.98 µM,< 1 µM,,
"CCCCC[C@@H](C(=O)NCNC(=O)c1ccc(-c2cc(OCC)cc(C(=O)N[C@@H](CC(=O)O)C(=O)OC(C)(C)C)c2)o1)[C@@H](CC)N(O)C=O [Example 47, (S)-4-(tert-butoxy)-3-(3-ethoxy-5-(5-((((R)-2-((R)-1-(N-hydroxyformamido)propyl)heptanamido)methyl)carbamoyl)furan-2-yl)benzamido)-4-oxobutanoic acid]",< 3.98 µM,< 1 µM,,
"CCCCC[C@@H](C(=O)NCNC(=O)c1ccc(-c2cc(OCC)cc(C(=O)N[C@@H](CCC(=O)O)C(=O)O)c2)o1)[C@@H](CC)N(O)C=O [Example 93, (S)-2-(3-ethoxy-5-(5-((((R)-2-((R)-1-(N-hydroxy-formamido)propyl)heptanamido)methyl)carbamoyl)furan-2-yl)benzamido) pentanedioic acid]",< 3.98 µM,< 1 µM,,
"CCCCC[C@@H](C(=O)NCNC(=O)c1ccc(-c2cc(OCC)c(F)c(C(=O)O)c2)o1)[C@@H](CC)N(O)C=O [Example 111, 3-ethoxy-2-fluoro-5-(5-((((R)-2-((R)-1-(N-hydroxy-formamido)propyl)heptanamido)methyl)carbamoyl)furan-2-yl)benzoic acid]",< 3.98 µM,< 1 µM,,
"CCCCC[C@@H](C(=O)NCNC(=O)c1ccc(-c2ccc(C(=O)N(CC(=O)O)CC(=O)O)c(OCC)c2)o1)[C@@H](CC)N(O)C=O [Example 86, 2,2′-((2-ethoxy-4-(5-((((R)-2-((R)-1-(N-hydroxy-formamido)propyl)heptanamido)methyl)carbamoyl)furan-2-yl)benzoyl)azanediyl) diacetic acid]",< 3.98 µM,< 1 µM,,
"CCCCC[C@@H](C(=O)NCNC(=O)c1ccc(-c2cc(CP(=O)(O)O)cc(OCC)c2)o1)[C@@H](CC)N(O)C=O [Example 99, (3-ethoxy-5-(5-((((R)-2-((R)-1-(N-hydroxy-formamido)propyl)heptanamido)methyl)carbamoyl)furan-2-yl)benzyl) phosphonic acid]",< 3.98 µM,< 1 µM,,
"CCCCC[C@@H](C(=O)NCNC(=O)c1ccc(-c2ccc(C(=O)N[C@@H](CC(=O)O)C(=O)O)c(OCC)c2)o1)[C@@H](CC)N(O)C=O [Example 74, (S)-2-(2-ethoxy-4-(5-((((R)-2-((R)-1-(N-hydroxyformamido)propyl)heptanamido)methyl)carbamoyl)furan-2-yl)benzamido)succinic acid]",< 3.98 µM,< 1 µM,,
CCCCC[C@@H](C(=O)NCNC(=O)c1ccc(-c2cc(OCCC)cc(C(=O)O)c2)o1)[C@@H](CC)N(O)C=O [Example 82],< 3.98 µM,< 1 µM,,
"CCCCC[C@H](CN(O)C=O)C(=O)NCNC(=O)c1ccc(-c2ccccc2)o1 [Example 5, (R)-N-((2-((N-hydroxyformamido)methyl)heptanamido)methyl)-5-phenylfuran-2-carboxamide]",,,< 3.98 µM,< 1 µM
"CCCCC[C@@H](C(=O)NCNC(=O)c1ccc(-c2ccc(C(=O)N[C@H](CC(=O)O)C(=O)O)c(OCC)c2)o1)[C@@H](CC)N(O)C=O [Example 132, (R)-2-(2-ethoxy-4-(5-((((R)-2-((R)-1-(N-hydroxyformamido)propyl)heptanamido)methyl)carbamoyl)furan-2-yl)benzamido) succinic acid]",< 3.98 µM,< 1 µM,,
"CCOc1cc(-c2ccc(C(=O)NCNC(=O)[C@H](CCc3ccccc3)[C@@H](CC)N(O)C=O)o2)ccc1C(=O)N[C@@H](CC(=O)O)C(=O)O [Example 127, (S)-2-(2-ethoxy-4-(5-((((2R,3R)-3-(N-hydroxyformamido)-2-phenethylpentanamido)methyl)carbamoyl)furan-2-yl)benzamido) succinic acid]",< 3.98 µM,< 1 µM,,
